# Data taken from patent US8912198B2, “Compounds useful as inhibitors of ATR kinase” (Vertex Pharmaceuticals Incorporated, priority 2012, dated 2014).
# pIC50, pKi: −log10 of the molar value.
# Key:
# intracellular ATR = molecular target: T1, intracellular ATR (Homo sapiens, UniProt Q13535); assay: Cellular ATR inhibition assay, H2AX phosphorylation in hydroxyurea treated HT29 cells; assay type: cell-based; conditions: 2 mM hydroxyurea, phosphorylated H2AX Ser139 positive nuclei
# T1 construct: endogenous in cells; host or cells: HT29
# Description: Compounds can be screened for their ability to inhibit intracellular ATR using an immunofluorescence microscopy assay to detect phosphorylation of the ATR substrate histone H2AX in hydroxyurea treated cells. HT29 cells are plated at 14,000 cells per well in 96-well black imaging plates (BD 353219) in McCoy's 5A media (Sigma M8403) supplemented with 10% foetal bovine serum (JRH Biosciences 12003), Penicillin/Streptomycin solution diluted 1:100 (Sigma P7539), and 2 mM L-glumtamine (Sigma G7513), and allowed to adhere overnight at 37° C. in 5% CO2. Compounds are then added to the cell media from a final concentration of 25 μM in 3-fold serial dilutions and the cells are incubated at 37° C. in 5% CO2. After 15 min, hydroxyurea (Sigma H8627) is added to a final concentration of 2 mM.
# After 45 min of treatment with hydroxyurea, the cells are washed in PBS, fixed for 10 min in 4% formaldehyde diluted in PBS (Polysciences Inc 18814), washed in 0.2% Tween-20 in PBS (wash buffer), and permeabilised for 10min in 0.5% Triton X-100 in PBS, all at room temperature. The cells are then washed once in wash buffer and blocked for 30 min at room temperature in 10% goat serum (Sigma G9023) diluted in wash buffer (block buffer). To detect H2AX phosphorylation levels, the cells are then incubated for 1 h at room temperature in primary antibody (mouse monoclonal anti-phosphorylated histone H2AX Ser139 antibody; Upstate 05-636) diluted 1:250 in block buffer. The cells are then washed five times in wash buffer before incubation for lh at room temperature in the dark in a mixture of secondary antibody (goat anti-mouse Alexa Fluor 488 conjugated antibody; Invitrogen A11029) and Hoechst stain (Invitrogen H3570); diluted 1:500 and 1:5000, respectively, in wash buffer. The cells are then washed five times in wash buffer and finally 100 ul PBS is added to each well before imaging.
# Cells are imaged for Alexa Fluor 488 and Hoechst intensity using the BD Pathway 855 Bioimager and Attovision software (BD Biosciences, Version 1.6/855) to quantify phosphorylated H2AX Ser139 and DNA staining, respectively. The percentage of phosphorylated H2AX-positive nuclei in a montage of 9 images at 20× magnification is then calculated for each well using BD Image Data Explorer software (BD Biosciences Version 2.2.15). Phosphorylated H2AX-positive nuclei are defined as Hoechst-positive regions of interest containing Alexa Fluor 488 intensity at 1.75-fold the average Alexa Fluor 488 intensity in cells not treated with hydroxyurea. The percentage of H2AX positive nuclei is finally plotted against concentration for each compound and IC50s for intracellular ATR inhibition are determined using Prism software (GraphPad Prism version 3.0cx for Macintosh, GraphPad Software, San Diego Calif., USA).
# [1] = system: HCT116 colorectal cancer cells; assay: Single agent HCT116 activity, 96 h cell viability (MTS) assay; assay type: cell-based; conditions: Homo sapiens, HCT-116; 96 h MTS cell viability, compound alone; read-out: Single agent HT116 IC50
# Description: Compounds can be screened for single agent activity against HCT116 colorectal cancer cells using a 96 h cell viability (MTS) assay. HCT116 are plated at 470 cells per well in 96-well polystyrene plates (Costar 3596) in 150 μl of McCoy's 5A media (Sigma M8403) supplemented with 10% foetal bovine serum (JRH Biosciences 12003), Penicillin/Streptomycin solution diluted 1:100 (Sigma P7539), and 2 mM L-glumtamine (Sigma G7513), and allowed to adhere overnight at 37° C. in 5% CO2. Compounds are then added to the cell media in 2-fold serial dilutions from a top final concentration of 10 μM as a full matrix of concentrations in a final cell volume of 200 μl, and the cells are then incubated at 37° C. in 5% CO2. After 96 h, 40 μl of MTS reagent (Promega G358a) is added to each well and the cells are incubated for lh at 37° C. in 5% CO2. Finally, absorbance is measured at 490 nm using a SpectraMax Plus 384 reader (Molecular Devices) and IC50 values can be calculated.
# [2] = system: HCT116 colorectal cancer cells; assay: Cisplatin sensitization assay, 96 h cell viability (MTS); assay type: cell-based; conditions: concentration of compound required to reduce the IC50 of Cisplatin alone by at least 3-fold; HCT116, 96 h MTS
# Description: Compounds can be screened for their ability to sensitize HCT116 colorectal cancer cells to Cisplatin using a 96 h cell viability (MTS) assay. […] Compounds and Cisplatin are then both added simultaneously to the cell media in 2-fold serial dilutions from a top final concentration of 10 μM as a full matrix of concentrations in a final cell volume of 200 μl and the cells are then incubated at 37° C. in 5% CO2. After 96 h, 40 μl of MTS reagent (Promega G358a) is added to each well and the cells are incubated for lh at 37° C. in 5% CO2. Finally, absorbance is measured at 490 nm using a SpectraMax Plus 384 reader (Molecular Devices) and the concentration of compound required to reduce the IC50 of Cisplatin alone by at least 3-fold (to 1 decimal place) can be reported.
# full-length ATR = molecular target: T2, full-length ATR (Homo sapiens, UniProt Q13535); assay: ATR inhibition assay, radioactive-phosphate incorporation; assay type: biochemical; conditions: Ki(app); 5 nM full-length ATR, 10 μM ATP, 800 μM target peptide, 25° C.
# T2 construct: Assays were carried out at 25° C. in the presence of 5 nM full-length ATR
# Description: Compounds were screened for their ability to inhibit ATR kinase using a radioactive-phosphate incorporation assay. Assays were carried out in a mixture of 50 mM Tris/HCl (pH 7.5), 10 mM MgCl2 and 1 mM DTT. Final substrate concentrations were 10 μM [γ-33P]ATP (3 mCi 33P ATP/mmol ATP, Perkin Elmer) and 800 μM target peptide (ASELPASQPQPFSAKKK (SEQ. ID NO: 1)).
# Assays were carried out at 25° C. in the presence of 5 nM full-length ATR. An assay stock buffer solution was prepared containing all of the reagents listed above, with the exception of ATP and the test compound of interest. 13.5 μL of the stock solution was placed in a 96 well plate followed by addition of 2 μL of DMSO stock containing serial dilutions of the test compound (typically starting from a final concentration of 15 μM 3-fold serial dilutions) in duplicate (final DMSO concentration 7%). The plate was pre-incubated for 10 minutes at 25° C. and the reaction initiated by addition of 15 μL [γ-33P]ATP (final concentration 10 μM).
# The reaction was stopped after […] by the addition of 30 μL 0.1M phosphoric acid containing 2 mM ATP. A multiscreen phosphocellulose filter 96-well plate (Millipore, Cat no. MAPHN0B50) was pretreated with 100 μL 0.2M phosphoric acid prior to the addition of 45 μL of the stopped assay mixture. The plate was washed with 5×200 μL 0.2M phosphoric acid. After drying, 100 μL Optiphase ‘SuperMix’ liquid scintillation cocktail (Perkin Elmer) was added to the well prior to scintillation counting (1450 Microbeta Liquid Scintillation Counter, Wallac).
# After removing mean background values for all of the data points, Ki(app) data were calculated from non-linear regression analysis of the initial rate data using the Prism software package (GraphPad Prism version 3.0cx for Macintosh, GraphPad Software, San Diego, Calif., USA).
# T2 sequence (Q13535 whole entry): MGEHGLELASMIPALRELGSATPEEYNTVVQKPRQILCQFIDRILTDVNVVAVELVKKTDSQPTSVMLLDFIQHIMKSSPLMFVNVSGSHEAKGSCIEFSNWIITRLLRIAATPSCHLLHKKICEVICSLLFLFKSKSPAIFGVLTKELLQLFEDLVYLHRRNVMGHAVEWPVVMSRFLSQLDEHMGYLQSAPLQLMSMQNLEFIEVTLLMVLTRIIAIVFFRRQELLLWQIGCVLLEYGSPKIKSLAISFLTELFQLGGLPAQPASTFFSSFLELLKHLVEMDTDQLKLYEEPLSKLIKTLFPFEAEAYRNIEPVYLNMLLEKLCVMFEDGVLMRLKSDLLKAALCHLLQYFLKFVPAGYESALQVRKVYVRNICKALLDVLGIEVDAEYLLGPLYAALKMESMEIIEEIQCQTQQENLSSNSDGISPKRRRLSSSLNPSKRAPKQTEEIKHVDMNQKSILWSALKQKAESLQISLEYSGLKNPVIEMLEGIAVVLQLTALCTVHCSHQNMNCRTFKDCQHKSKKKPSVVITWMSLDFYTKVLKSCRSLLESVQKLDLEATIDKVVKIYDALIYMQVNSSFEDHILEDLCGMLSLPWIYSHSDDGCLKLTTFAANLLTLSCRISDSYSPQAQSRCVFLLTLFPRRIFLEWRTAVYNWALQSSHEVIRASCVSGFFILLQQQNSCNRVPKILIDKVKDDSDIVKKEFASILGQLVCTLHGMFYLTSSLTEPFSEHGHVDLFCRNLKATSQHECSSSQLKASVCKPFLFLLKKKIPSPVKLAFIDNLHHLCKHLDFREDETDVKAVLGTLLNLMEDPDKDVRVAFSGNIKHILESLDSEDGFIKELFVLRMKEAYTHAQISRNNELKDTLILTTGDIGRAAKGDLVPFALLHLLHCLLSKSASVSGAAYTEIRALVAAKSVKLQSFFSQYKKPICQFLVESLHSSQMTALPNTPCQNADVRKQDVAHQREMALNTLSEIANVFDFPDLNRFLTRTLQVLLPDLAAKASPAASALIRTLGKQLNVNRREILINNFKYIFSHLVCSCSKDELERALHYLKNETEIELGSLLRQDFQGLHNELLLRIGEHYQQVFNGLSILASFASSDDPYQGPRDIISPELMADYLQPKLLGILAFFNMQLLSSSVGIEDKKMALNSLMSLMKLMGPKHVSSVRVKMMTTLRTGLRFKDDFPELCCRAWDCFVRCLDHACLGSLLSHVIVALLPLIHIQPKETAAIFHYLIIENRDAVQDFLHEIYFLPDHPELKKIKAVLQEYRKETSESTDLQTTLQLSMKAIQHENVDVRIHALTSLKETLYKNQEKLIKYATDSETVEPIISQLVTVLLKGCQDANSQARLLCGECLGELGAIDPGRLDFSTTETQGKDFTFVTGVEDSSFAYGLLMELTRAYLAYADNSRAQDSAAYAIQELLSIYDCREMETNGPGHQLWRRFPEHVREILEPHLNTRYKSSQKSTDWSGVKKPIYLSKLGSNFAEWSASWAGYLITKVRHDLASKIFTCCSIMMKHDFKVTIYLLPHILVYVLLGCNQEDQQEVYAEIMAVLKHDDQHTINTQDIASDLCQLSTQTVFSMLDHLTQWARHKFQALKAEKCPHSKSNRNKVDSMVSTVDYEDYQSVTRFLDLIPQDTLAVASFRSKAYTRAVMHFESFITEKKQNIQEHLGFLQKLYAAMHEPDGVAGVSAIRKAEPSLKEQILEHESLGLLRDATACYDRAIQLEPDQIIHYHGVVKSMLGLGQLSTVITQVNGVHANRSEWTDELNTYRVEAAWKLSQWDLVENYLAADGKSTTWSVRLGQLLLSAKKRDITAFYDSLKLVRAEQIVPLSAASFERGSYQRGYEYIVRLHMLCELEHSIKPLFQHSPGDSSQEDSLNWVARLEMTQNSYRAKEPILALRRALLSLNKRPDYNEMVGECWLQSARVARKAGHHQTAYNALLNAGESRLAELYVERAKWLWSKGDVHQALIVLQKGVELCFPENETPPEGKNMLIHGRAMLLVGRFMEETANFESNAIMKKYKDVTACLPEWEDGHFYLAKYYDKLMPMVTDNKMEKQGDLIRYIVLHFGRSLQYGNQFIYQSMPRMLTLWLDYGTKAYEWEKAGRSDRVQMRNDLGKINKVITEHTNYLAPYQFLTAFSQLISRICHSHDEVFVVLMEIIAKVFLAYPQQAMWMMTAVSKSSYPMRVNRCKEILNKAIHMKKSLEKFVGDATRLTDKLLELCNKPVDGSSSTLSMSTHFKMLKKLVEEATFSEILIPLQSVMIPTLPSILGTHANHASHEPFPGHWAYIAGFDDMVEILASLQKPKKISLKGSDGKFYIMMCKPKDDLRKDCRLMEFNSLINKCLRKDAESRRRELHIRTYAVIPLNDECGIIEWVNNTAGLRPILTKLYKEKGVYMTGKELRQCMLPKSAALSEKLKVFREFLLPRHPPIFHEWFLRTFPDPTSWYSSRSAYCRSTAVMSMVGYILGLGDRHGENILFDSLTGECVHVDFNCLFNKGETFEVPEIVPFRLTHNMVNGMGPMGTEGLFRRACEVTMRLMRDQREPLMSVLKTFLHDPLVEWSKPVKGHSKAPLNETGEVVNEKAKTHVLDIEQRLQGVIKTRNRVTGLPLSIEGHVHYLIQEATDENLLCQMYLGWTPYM
# T1 sequence (Q13535 whole entry): as above
# T1 sequence (Q8WXE1 whole entry partner): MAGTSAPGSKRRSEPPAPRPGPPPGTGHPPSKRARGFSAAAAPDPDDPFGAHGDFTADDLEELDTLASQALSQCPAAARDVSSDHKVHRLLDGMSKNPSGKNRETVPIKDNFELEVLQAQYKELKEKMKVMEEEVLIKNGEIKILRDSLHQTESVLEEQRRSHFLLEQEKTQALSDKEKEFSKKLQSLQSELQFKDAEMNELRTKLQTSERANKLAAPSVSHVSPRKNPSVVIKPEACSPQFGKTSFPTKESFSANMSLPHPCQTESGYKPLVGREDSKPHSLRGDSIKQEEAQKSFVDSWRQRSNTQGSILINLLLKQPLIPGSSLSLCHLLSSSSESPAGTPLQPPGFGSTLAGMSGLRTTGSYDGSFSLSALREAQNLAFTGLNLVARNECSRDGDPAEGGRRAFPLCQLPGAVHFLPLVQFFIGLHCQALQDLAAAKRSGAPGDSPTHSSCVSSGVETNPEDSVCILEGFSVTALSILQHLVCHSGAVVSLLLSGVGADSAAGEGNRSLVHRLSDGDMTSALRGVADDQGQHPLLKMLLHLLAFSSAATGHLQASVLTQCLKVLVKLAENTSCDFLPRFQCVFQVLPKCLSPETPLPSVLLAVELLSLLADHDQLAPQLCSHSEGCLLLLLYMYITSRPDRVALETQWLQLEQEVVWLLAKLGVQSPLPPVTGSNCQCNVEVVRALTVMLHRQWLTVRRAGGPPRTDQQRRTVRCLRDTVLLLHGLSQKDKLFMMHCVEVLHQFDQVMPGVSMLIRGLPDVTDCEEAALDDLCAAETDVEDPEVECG
SMILES,pIC50 (intracellular ATR),pIC50 [1],pKi (full-length ATR),Cisplatin sensitization [2]
"CC(C)S(=O)(=O)c1ccc(-c2cnc(N)c(-c3cc(-c4ccc(NCC5CCCCN5)cc4)no3)n2)cc1 (stereo not drawn) [Compound I-1, 5-(4-isopropylsulfonylphenyl)-3-[3-[4-(2-piperidylmethylamino)phenyl]isoxazol-5-yl]pyrazin-2-amine]",7.21,6.68,9.20,156 nM
"CC(C)S(=O)(=O)c1ccc(-c2cnc(N)c(-c3cc(-c4ccc(NCC5CCCN5)cc4)no3)n2)cc1 (stereo not drawn) [Compound I-5, 5-(4-isopropylsulfonylphenyl)-3-[3-[4-(pyrrolidin-2-ylmethylamino)phenyl]isoxazol-5-yl]pyrazin-2-amine]",> 8.00,7.59,> 10.00,20 nM
"CC(C)S(=O)(=O)c1ccc(-c2cnc(N)c(-c3cc(-c4ccc(NCCN(C)C)cc4)no3)n2)cc1 [Compound I-6, N-(4-(5-(3-amino-6-(4-(isopropylsulfonyl)phenyl)pyrazin-2-yl)isoxazol-3-yl)phenyl)-N,N-dimethylethane-1,2-diamine]",6.59,6.14,9.39,78 nM

# The next lines start with results.
pIC50 (intracellular ATR),pIC50 [1],pKi (full-length ATR),SMILES,Cisplatin sensitization [2]
7.40,6.85,9.22,"CC(C)S(=O)(=O)c1ccc(-c2cnc(N)c(-c3cc(-c4ccc(NCC5CCN5)cc4)no3)n2)cc1 (stereo not drawn) [Compound I-2, 3-[3-[4-(azetidin-2-ylmethylamino)phenyl]isoxazol-5-yl]-5-(4-isopropylsulfonylphenyl)pyrazin-2-amine]",78 nM
7.85,7.08,9.31,"CC(C)S(=O)(=O)c1ccc(-c2cnc(N)c(-c3cc(-c4ccc(NC[C@@H]5CCCN5)cc4)no3)n2)cc1 [Compound I-3, (S)-5-(4-(isopropylsulfonyl)phenyl)-3-(3-(4-((pyrrolidin-2-ylmethyl)amino)phenyl)isoxazol-5-yl)pyrazin-2-amine]",20 nM
7.89,7.28,9.46,"CC(C)S(=O)(=O)c1ccc(-c2cnc(N)c(-c3cc(-c4ccc(NC[C@H]5CCCN5)cc4)no3)n2)cc1 [Compound I-4, (R)-5-(4-(isopropylsulfonyl)phenyl)-3-(3-(4-((pyrrolidin-2-ylmethyl)amino)phenyl)isoxazol-5-yl)pyrazin-2-amine]",39 nM
